Results on two compounds are retold here after paper PMC5063977 (The Journal of Biological Chemistry, 2016).

Experiment [1] deals with RAMP-CLR complexes (RAMP1, RAMP2, RAMP3). The experiment in a line: (Ca^2+)i mobilization with inhibitor pretreatment, HEK-293 cells, all RAMP-CLR complexes. Format: cell-based, human. Conditions: HEK-293, any RAMP-CLR complex. On the procedure: FIGURE 8. CLR in combination with each RAMP generates receptors that mobilize (Ca^2+)i release when expressed in HEK-293 cells. (Ca^2+)i mobilization was determined from HEK-293 cells transiently transfected with CLR and RAMP1 (n = 5) (A), RAMP2 (n = 5) (B), and RAMP3 (n = 5) (C). […] Data are expressed as percentage of the maximal (Ca^2+)i release as determined using 10 μM ionomycin. To determine the contribution made by different G proteins to the (Ca^2+)i response, cells were preincubated with either PTX (to inhibit Gαi) or YM-254890 (a selective Gαq inhibitor). All values are means ± S.E. of n individual data sets.
HEK-293 cells, provided by Dr. Jügen Müller (University of Aston), were cultured in DMEM supplemented with 10% heat-inactivated FBS and kept at 37 °C in a humidified 95% air, 5% CO2 incubator. HEK-293S cells (a gift from AstraZeneca) were cultured in DMEM supplemented with 8% heat-inactivated FBS and kept at 37 °C in a humidified 95% air, 5% CO2 incubator. HEK-293 cells were transfected with FuGENE 6 (Roche Applied Science) in accordance with the manufacturer's instructions using a 1:3 (w:v) DNA:FuGENE ratio and a 1:1 ratio of RAMP to CLR. HEK-293S cells were seeded into 96-well poly-D-lysine-coated plates at a density of 15,000 cells/well (determined using a Countess^TM cell counter, Invitrogen) 1 day prior to transfection. HEK-293S cells were transiently transfected as described previously ([38]) using a 1:1 ratio of RAMP to CLR. The transfected cell lines were grown for 24–48 h prior to assaying.
Transfected HEK-293 cells were grown to confluence in black, clear bottomed, 96-well plates. […] Ligands were added robotically using a Mithras LB 940 multimode microplate reader in the range of 10 pM to 1 μM, and fluorescence was determined immediately post-injection with an excitation wavelength set to 485 nm and an emission wavelength set to 535 nm. […] Peak magnitude was calculated using five-point smoothing followed by correction against background fluorescence. […]

The test system of experiment [2] is untransfected HEK-293 cells. The experiment is described as follows: forskolin-stimulated cAMP accumulation, untransfected HEK-293 cells. Format: cell-based, human. (In general: Changes in cAMP serve as a functional read-out for many G protein-coupled receptors.)

As to pertussis toxin [PTX], the “effect of PTX on calcium released in response to the three ligands” value in experiment [1] is given as “no effect”. On to `C=C[C@@]1(C)CC(=O)[C@]2(O)[C@@]3(C)[C@@H](O)CCC(C)(C)[C@@H]3[C@H](O)[C@H](OC(C)=O)[C@@]2(C)O1` [forskolin, Forskolin], for which the “overall level of cAMP accumulation, forskolin stimulation” value in experiment [2] (untransfected HEK-293, PTX treated) stood at 16.45 ± 2.4 pmol cell^−1; in experiment [2] (untransfected HEK-293, untreated (no PTX)) it was 16.57 ± 2.5 pmol cell^−1.
